Tested on: intracellular proteome of ENR+CD and ENR organoids
Test: LC-MS/MS TMT proteomics of ENR+CD versus ENR organoids
Type: cell-based, C57BL/6 mice
Conditions: for change: up = enriched in ENR+CD, down = enriched in ENR, FDR<0.05 and log fold change cut-off
Description: Because PCs are highly secretory, protein-rich cells, Applicants sought to assess the total intracellular proteome between conditions through liquid chromatography mass spectrometry (LC-MS/MS)-based proteomics. Applicants quantified relative protein abundance across eight samples using isobaric mass tag labeling from four ENR and four ENR+CD samples (M1-1 through M2-2, first digit denotes biological donor, second digit denotes technical replicate) (FIG. 3A). Samples were processed and analyzed in a single 10-plex by LC-MS/MS (FIG. 9A).
To affirm the reproducibility of the associated proteins in the ENR+CD-enriched proteome, Applicants performed relative quantification within differentiation sets.
Mass spectrometry proteomics sample preparation, sequencing, and quantification. Organoid cell pellets were isolated from Matrigel with mechanical dissociation and washed (cold PBS 5X) to remove residual extracellular protein. Proteins were extracted from cell pellets with 8 M urea (Sigma), reduced with 5 mM DTT (Thermo Fisher Pierce) for 45 minutes, alkylated with 10 mM IAA (Sigma) for 45 minutes in the dark, and double digested with both Lysyl Endopeptidase “LysC” (Wako) and trypsin (Promega) overnight at RT. A small aliquot of cellular lysate was removed from each sample for protein quantification via the Pierce™ BCA Protein Assay Kit (Pierce). After proteolytic digestion, the samples were quenched using formic acid to a final concentration of 1.0% and subsequently desalted on 10 mg OASIS HLB solid phase columns (Waters).
The peptides were labeled with TMT-10 isobaric mass tag reagent according to manufacturer's instructions (ThermoFisher Scientific). The peptides were labeled at a 1:8 ratio of peptide to TMT reagent, followed by 1-hour incubation at RT with bench top shaking at 850 rpm. After incubation, a […] of labeled tryptic peptide was removed from each labeled condition, desalted with C18 stage tips, and analyzed via LC-MS/MS using a Thermo Fisher Q Exactive Plus Hybrid Mass Spectrometer (QE-Plus) coupled to a Thermo Fisher EASY-nLC 1000 liquid chromatograph to ensure isobaric label incorporation >95%. An additional 1.0 μg of labeled tryptic peptide was removed from each channel, mixed together, desalted on a C18 stage tip, and analyzed via LC-MS to ensure equal relative protein loads. During these quality control steps, the labeled peptides were stored, unquenched at −80° C.

[1] = protein abundance, ENR+CD versus ENR organoids, aggregate of the four sample pairs
[2] = protein abundance, ENR+CD versus ENR organoids, replicate M1-1, log2 ratio
[3] = protein abundance, ENR+CD versus ENR organoids, replicate M1-2, log2 ratio
[4] = protein abundance, ENR+CD versus ENR organoids, replicate M2-1, log2 ratio
[5] = protein abundance, ENR+CD versus ENR organoids, replicate M2-2, log2 ratio
[6] = ENR+CD versus ENR organoids, sample pairs in aggregate (n=4, 2 technical replicates from two biological donors)
[7] = protein abundance ratio ENR+CD versus ENR organoids, sample pair M1-1, LC-MS/MS TMT proteomics
[8] = protein abundance ratio ENR+CD versus ENR organoids, sample pair M1-2, LC-MS/MS TMT proteomics
[9] = protein abundance ratio ENR+CD versus ENR organoids, sample pair M2-1, LC-MS/MS TMT proteomics
[10] = protein abundance ratio ENR+CD versus ENR organoids, sample pair M2-2, LC-MS/MS TMT proteomics

Row | Substance | Average logFC [1] | M1-1 Log2 Median Normalized [2] | M1-2 Log2 Median Normalized [3] | M2-1 Log2 Median Normalized [4] | M2-2 Log2 Median Normalized [5] | change | Average logFC [6] | M1-1 Log2 Median Normalized [7] | M1-2 Log2 Median Normalized [8] | M2-1 Log2 Median Normalized [9] | M2-2 Log2 Median Normalized [10]
1 | B9EJA2 | −1.156 | −1.439 | −1.031 | −0.9535 | −1.2 | down | – | – | – | – | –
2 | O70472 | 1.172 | 1.419 | 0.87 | 1.3875 | 1.011 | up | – | – | – | – | –
3 | O70514 | −1.202 | −1.413 | −1.091 | −1.0895 | −1.216 | down | – | – | – | – | –
4 | P02798 | −2.904 | −2.904 | −2.907 | −2.2505 | −3.047 | down | – | – | – | – | –
5 | P02802 | −1.725 | −2.19 | −2.322 | −1.3715 | −1.016 | down | – | – | – | – | –
6 | P07309 | 1.249 | 1.309 | 0.951 | 1.2255 | 1.511 | up | – | – | – | – | –
7 | P07310 | −2.279 | −1.418 | −3.14 | −2.0165 | −2.541 | down | – | – | – | – | –
8 | P09405 | −1.217 | −1.377 | −0.807 | −1.0695 | −1.615 | down | – | – | – | – | –
9 | P18894 | −1.376 | −1.222 | −1.706 | −1.8305 | −0.745 | down | – | – | – | – | –
10 | P47968 | −1.292 | −0.958 | −1.223 | −1.2935 | −1.827 | down | – | – | – | – | –
11 | P56382 (MVAYWRQAGLSYIRFSQICAKAVRDALKTEFKANAEKTSGSSIKIVKVSKKE; full-length; UniProt P56382 1-52, looked up) | −2.387 | −1.051 | −3.179 | −1.3955 | −3.924 | down | – | – | – | – | –
12 | P56716 | 1.303 | 0.494 | 1.733 | 1.3015 | 1.329 | up | – | – | – | – | –
13 | P84102 (MTRGNQRELARQKNMKKQSDSVKGKRRDDGLSAAARKQRDSEIMQQKQKKANEKKEEPK; full-length; UniProt P84102 1-59, looked up) | 1.286 | 1.517 | 0.63 | 2.2205 | 0.775 | up | – | – | – | – | –
14 | P97328 | −1.236 | −1.151 | −2.263 | −1.4115 | −0.12 | down | – | – | – | – | –
15 | P97479 | −1.162 | −1.135 | −1.101 | −1.2195 | −1.191 | down | – | – | – | – | –
16 | Q4ACU6 | – | – | – | – | – | down | −1.637 | −1.525 | −1.512 | −1.6745 | −1.835
17 | Q6ZWR6 | – | – | – | – | – | up | 1.168 | 1.167 | 0.703 | 1.1985 | 1.566

Row | Substance | Average logFC [1] | M1-1 Log2 Median Normalized [2] | M1-2 Log2 Median Normalized [3] | M2-1 Log2 Median Normalized [4] | M2-2 Log2 Median Normalized [5] | change | Average logFC [6] | M1-1 Log2 Median Normalized [7] | M1-2 Log2 Median Normalized [8] | M2-1 Log2 Median Normalized [9] | M2-2 Log2 Median Normalized [10]
18 | Q7JJ13 | – | – | – | – | – | down | −1.145 | −1.243 | −0.748 | −0.9235 | −1.666
19 | Q8BHB9 | – | – | – | – | – | down | −1.288 | −1.576 | −1.245 | −1.3195 | −1.01
20 | Q8BRB7 | – | – | – | – | – | down | −1.345 | −0.966 | −1.077 | −1.3755 | −1.962
21 | Q8R0T2 | – | – | – | – | – | down | −1.493 | −1.662 | −0.647 | −0.8365 | −2.825
22 | Q8VHB5 | – | – | – | – | – | down | −1.632 | −1.611 | −1.401 | −1.7625 | −1.754
23 | Q9CPS7 | – | – | – | – | – | down | −1.227 | −1.383 | −1.226 | −0.9215 | −1.327
24 | Q9D937 | – | – | – | – | – | down | −1.943 | −2.074 | −1.942 | −1.0675 | −2.286
25 | Q9ET22 | – | – | – | – | – | up | 1.277 | 1.451 | 1.159 | 1.3455 | 1.153
26 | Q9JMC3 | – | – | – | – | – | up | 1.386 | 1.758 | 0.805 | 1.3105 | 1.67
27 | Q9QWG7 | – | – | – | – | – | down | −1.142 | −1.032 | −1.575 | −1.8475 | −0.115
28 | Q9R0M0 | – | – | – | – | – | up | 1.229 | 1.297 | 0.675 | 1.2135 | 1.732
29 | Q52KR3 | – | – | – | – | – | down | −1.393 | −2.118 | −0.268 | −1.3905 | −1.67
30 | Q80SU7 | – | – | – | – | – | down | −1.224 | −1.279 | −0.758 | −1.2235 | −1.338
31 | Q80TR4 | – | – | – | – | – | up | 1.235 | 1.316 | 1.587 | 1.2175 | 0.818
32 | Q91VE6 | – | – | – | – | – | down | −1.411 | −1.492 | −1.242 | −1.0275 | −1.884
33 | Q91WA1 | – | – | – | – | – | down | −1.673 | −1.929 | −0.883 | −1.5765 | −2.303
34 | Q03172 | 1.206 | 0.832 | 1.656 | 1.2325 | 1.102 | up | – | – | – | – | –
